Tests used:
[1] = test system: rno expression in HL-60 cells; assay: RT-PCR analysis of rno expression in HL-60 cells treated with differentiating agents; type: cell-based, human; details: for rno expression (RT-PCR), sGC/cGMP pathway agents alone: ODQ 10 μM, 8-Br-cGMP 3 mM; for time course of rno induction (RT-PCR): 125 μM DETA-NO or 1.2% DMSO added once, 24, 48, 72 hr; for rno expression (RT-PCR): DETA-NO 125 μM, DMSO 1.2% (v/v), VD3 100 nM
Experimental: FIG. 4 is a […] showing the effect of differentiating agents on rno expression in HL-60 cells. For the upper panel, HL-60 cells were treated with DETA-NO, DMSO, or VD3 for 24 hours before analysis of rno expression by RT-PCR. Lane 1, no treatment control; Lane 2, DETA-NO; Lane 3, DMSO; Lane 4, VD3; Lane 5, water blank (no template); Lane 6, reverse transcriptase omitted from the reaction mixture; Lane 7, RT-PCR performed using RNA isolated from normal PMN (positive control). The positions of the size marker (MW) are indicated on the left. The positions of rno-1 and rno-3 are shown on the right. Referring to the lower panel, RT-PCR analysis of actin expression was used to control for the quality and integrity of the cDNA that was prepared from the various samples. Lane 1, no treatment control cells; Lane 2, cells treated with DETA-NO, Lane 3, cells treated with DMSO; Lane 4, cells treated with VD3; Lane 5, water blank (no template), Lane 6, RT-PCR performed using RNA isolated from normal PMN.
FIG. 5 illustrates the time course of rno induction in HL-60 cells. For the results of the upper panel, HL-60 cells were treated with 125 μM DETA-NO or 1.2% DMSO, and expression of rno was analyzed by RT-PCR at three different time points. MW, 100 bp DNA ladder; Lane 1, no-treatment control cells; Lane 2, cells treated with DETA-NO for 24 hr; Lane 3, cells treated with DETA-NO for 48 hr; Lane 4; cells treated with DETA-NO for 72 hr; Lane 5, cells treated with DMSO for 24 hr; Lane 6, cells treated with DMSO for 48 hr; Lane 7, cells treated with DMSO 72 hr; Lane 8, water blank (no template). The position of rno-1 is indicated on the left. For the results of the lower panel, RT-PCR analysis of actin expression was used to control for the quality and integrity of the cDNA that was prepared from the various samples. MW, 100 bp DNA ladder; Lane 1, no-treatment control cells; Lane 2, cells treated with DETA-NO for 24 hr; Lane 3, cells treated with DETA-NO for 48 hr; Lane 4; cells treated with DETA-NO for 72 hr; Lane 5, cells treated with DMO for 24 hr; Lane 6, cells treated with DMSO for 48 hr; Lane 7, cells treated with DMSO 72 hr. The position of actin is indicated on the left. DETA-NO upregulates rno within 24 hours and expression returns to baseline by 48 hours. DMSO also upregulates rno within 24 hours but expression persists through the entire 72 hr of exposure.
FIG. 6 illustrates the effect of cGMP on rno expression. In the upper pannel, HL-60 cells were treated with DETA-NO, 8Br-cGMP, ODQ, or ODQ and DETA-NO for 24 hours. Subsequently rno expression was analyzed by using RT-PCR. Lane 1, molecular mass standards (100 bp ladder); Lane 2, no-treatment control cells; Lane 3, DETA-NO; Lane 4, 8-Br-cGMP; Lane 5, ODQ; Lane 6, ODQ and DETA-NO; Lane 7, water blank (no cDNA template); Lane 8, reverse transcriptase omitted from one of the reaction mixtures. The position of rno-1 is indicated on the left. In the lower panel, RT-PCR analysis of actin expression was used to control for the quality and integrity of the cDNA that was prepared from the various samples. Lane 1,100 bp DNA ladder; Lane 2, no-treatment control; Lane 3, cells treated with DETA-NO; Lane 4, cells treated with 8Br-cGMP; Lane 5, cells treated with ODQ; Lane 6, cells treated with ODQ and DETA-NO. The position of actin is indicated on the left. Upregulation of rno by DETA-NO is cGMP-independent.
Referring to FIG. 4, RT-PCR was used to compare the effects of three differentiating agents on expression of rno. NO induces HL-60 cells to differentiate along the monocytic lineage. Magrinat, G et al. (1992) Blood, 80:1980-1986. DMSO is a granulocytic differentiation agent, while VD3 induces monocytic differentiation. Trayner, ID et al. (1998) Leuk Res., 22:537-547.
Referring to FIG. 4, both NO and DMSO induce expression of rno. To determine if the time-course of induction is similar, HL-60 cells were incubated with either DETA-NO or DMSO for 72 hr. […]

[2] = Half-life of NO release of DETA-NO; type: physicochemical; details: by the time the 48 hr sample was harvested, from half-life of 20 hr
Experimental: HL-60 cells were from ATCC (Rockville, Md.) and were cultured at 37° C. in a 5% CO2 humidified atmosphere at a density of 150,000 cells/ml. The culture medium consisted of RPMI-1640 supplemented with 10% fetal bovine serum and 1% Penicillin (10,000 U/mL)/Streptomycin (10 mg/mL). (Z)-1-[2-(2-Aminoethyl)-N-(2-ammonioethyl)amino]diazen-1-um-1,2-diolate] (DETA-NO) was used as a source of NO. DETA-NO belongs to the diazenium diolate class of NO donors and releases 2 molecules of NO per carrier moiety with a half-life of NO release of 20 hours. Keefer, L K et al. (1996) Methods in Enzymology.268:281-293. The effects of the following other differentiating agents on expression of rno were also investigated: dimethyl sulfoxide (DMSO); all-trans retinoic acid (ATRA); and vitamin D3 (VD3). DETA-NO, DMSO, ATRA, or VD3 were added once to HL-60 cells at the time of culture initiation at concentrations of 125 μM, 1.2% (v/v), 1 μM, and 100 nM, respectively. For studies of the role of the soluble guanylate cyclase (sGC)/cGMP signal transduction pathway in NO upregulation of rno, the sGC inhibitor 1H-[1,2,4]oxadiazolo[4,3-a]quinoxalin-1 -one (ODQ) and the cell permeable cGMP analogue 8-Br-cGMP at concentrations of 10 μM were used and 3 mM, respectively. Brunner, F et al. (1996) J Pharmacol Exp Ther. 277:48-53; Boss, GR.(1989) Proc Natl Acad Sci USA. 86:7174-7178. […]

[3] = test system: rno expression in HL-60 cells; assay: Northern analysis of rno expression in DETA-NO treated HL-60 cells; type: cell-based, human; details: DETA-NO 125 μM, 24 hr, DP-3A probe
Experimental: FIG. 1 is a northern blot showing the induction of rno expression by NO. HL-60 cells were treated for 24 hr with DETA-NO (125 μM). Total cellular RNA was isolated and northern analysis was performed by using radiolabelled rno DP-3A as a probe as shown in the upper panel. […] The positions of the bands representing 28S and 18S ribosomal RNA are indicated on the left. Lane 1, RNA from control, untreated cells; Lane 2, RNA from DETA-NO treated cells.
The following two sets of cells were used for analysis of the effects NO on gene expression: control HL-60 cells incubated in media for 24 hours and HL-60 cells treated with 125 μM DETA-NO (a NO generating compound) for the same time period. Poly (A^+) RNA was prepared from the two sets of cells, and this material was used as template for the synthesis of double stranded cDNA. Following digestion with BglII, a set of primer/adapters was ligated to aliquots of each sample, and this cDNA was amplified by PCR to generate representations from the control and treated populations. By using the technique of RDA modified for cDNA, gene expression between the control and DETA-NO treated cells was compared. Lisitsyn, N et al. (1993) Science.259:946-951; Hubank, M & Schatz, D G (1994) Nucl Acids Res. 22:5640-5648; Kanai, N et al. (1999) Am J Hematol., 61:221-231. In the present study, two sets of subtraction/hybridizations were performed in parallel. […]

SMILES	rno expression (RT-PCR), sGC/cGMP pathway agents alone ([1]; 24 hours)	time course of rno induction (RT-PCR) [1]	rno expression (RT-PCR) ([1]; 24 hours)	also measured
Nc1nc2c(nc(Br)n2[C@@H]2O[C@@H]3COP(=O)(O)O[C@H]3[C@H]2O)c(=O)[nH]1 [8-Br-9 cGMP]	did not induce rno expression			
CC1=C(/C=C/C(C)=C/C=C/C(C)=C/C(=O)O)C(C)(C)CCC1 [ATRA, all-trans retinoic acid]				rno expression (RT-PCR), data not shown ([1]; ATRA 1 μM, even after 72 hr of exposure): no effect on rno expression
NCCN(CCN)/[N+]([O-])=N/O [DETA-NO]		evident at 24 hr and returned to baseline by 48 hr	upregulated	decrease of functional activity of the reagent [2]: more than 75%; rno expression (northern blot) [3]: upregulates rno expression
C[S+](C)[O-] [DMSO, dimethyl sulfoxide]		induced expression of rno within 24 hr, however, expression persisted through the entire 72 hr observation period	upregulated	
O=c1onc2cnc3ccccc3n12 [ODQ, 1H-[1,2,4]oxadiazolo[4,3-a]quinoxalin-1-one]	did not upregulate rno expression			effect of sGC inhibitor on induction of rno by DETA-NO (RT-PCR) ([1]; ODQ and DETA-NO in combination, 24 hours): did not prevent the induction of rno by DETA-NO
C=C1CC[C@H](O)C/C1=C/C=C1\CCC[C@]2(C)[C@@H]([C@H](C)CCCC(C)C)CC[C@@H]12 [VD3, vitamin D3]			not by VD3	

Source: US20010029033A1, “Novel gene rno upregulated in leukemia cells by nitric oxide and DMSO” (priority 2000, published 2001)
